Results published in patent US6620963B1, “TRICYCLO[6.2.202,7]DODECA-2(7),3,5-TRIEN-4-CARBONYLAMINO-PHENYL AND TRICYCLO[6.2.202,7]DODECA-2(7),3,5-TRIEN-4-CARBONYLAMINO-HETEROARYL AND RELATED COMPOUNDS HAVING RARα RECEPTOR SELECTIVE BIOLOGICAL ACTIVITY” (Allergan, Inc., priority 2002, dated 2003).

Tests used:
RARα = biological target: T1, RARα (Homo sapiens, UniProt P10276); assay: ligand binding assay, RARα; settings: RARα receptor subtype; read-out: RAR Kd (nM) α
T1 sequence (P10276 1-462): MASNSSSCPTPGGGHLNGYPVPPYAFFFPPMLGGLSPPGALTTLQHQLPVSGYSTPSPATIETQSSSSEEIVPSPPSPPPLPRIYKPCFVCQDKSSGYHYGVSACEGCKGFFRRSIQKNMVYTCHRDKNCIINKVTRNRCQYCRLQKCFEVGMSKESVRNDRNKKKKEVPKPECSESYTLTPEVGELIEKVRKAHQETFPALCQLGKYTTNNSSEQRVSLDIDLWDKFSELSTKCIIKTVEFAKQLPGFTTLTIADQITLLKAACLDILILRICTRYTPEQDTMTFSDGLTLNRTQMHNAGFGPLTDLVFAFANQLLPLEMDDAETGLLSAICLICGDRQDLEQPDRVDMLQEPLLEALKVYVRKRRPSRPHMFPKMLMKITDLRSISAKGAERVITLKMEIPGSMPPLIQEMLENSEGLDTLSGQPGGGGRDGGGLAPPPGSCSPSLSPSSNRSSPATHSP
From the text: (§1) A holoreceptor transactivation assay and a ligand binding assay which measure the antagonist/agonist like activity of the compounds of the invention, or their ability to bind to the several retinoid receptor subtypes, respectively, are described in published PCT Application No. WO WO93/11755 (particularly on pages 30-33 and 37-41) published on Jun. 24, 1993, the specification of which is also incorporated herein by reference. A detailed experimental procedure for holoreceptor transactivations has been described by Heyman et al. Cell 68, 397-406, (1992); Allegretto et al. J. Biol. Chem. 268, 26625-26633, and Mangelsdorf et al. The Retinoids: Biology, Chemistry and Medicine, pp 319-349, Raven Press Ltd., New York, which are expressly incorporated herein by reference. The results obtained in this assay are expressed in EC50 numbers, as they are also in the chimeric receptor transactivation assay. The results of ligand binding assay are expressed in Kd numbers. (See Cheng et al. Biochemical Pharmacology Vol. 22 pp 3099-3108, expressly incorporated herein by reference.)

RARβ = biological target: T2, RARβ (Homo sapiens, UniProt P10826); assay: ligand binding assay, RARβ; settings: RARβ receptor subtype; read-out: RAR Kd (nM) β
T2 sequence (P10826 1-455): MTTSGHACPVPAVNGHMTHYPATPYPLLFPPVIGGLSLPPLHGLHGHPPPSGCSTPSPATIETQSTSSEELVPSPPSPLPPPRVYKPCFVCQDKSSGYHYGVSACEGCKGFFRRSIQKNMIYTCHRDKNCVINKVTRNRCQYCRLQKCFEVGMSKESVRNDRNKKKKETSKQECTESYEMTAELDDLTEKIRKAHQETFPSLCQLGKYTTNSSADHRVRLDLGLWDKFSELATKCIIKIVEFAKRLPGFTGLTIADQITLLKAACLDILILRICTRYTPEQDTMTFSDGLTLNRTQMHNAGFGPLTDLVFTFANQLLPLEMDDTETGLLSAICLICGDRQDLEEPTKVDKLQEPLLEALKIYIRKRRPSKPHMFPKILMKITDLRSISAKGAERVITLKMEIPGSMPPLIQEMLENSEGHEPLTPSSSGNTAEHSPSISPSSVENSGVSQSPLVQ
From the text: as §1

RARγ = biological target: T3, RARγ (Homo sapiens, UniProt P13631); assay: ligand binding assay, RARγ; settings: RARγ receptor subtype; read-out: RAR Kd (nM) γ
T3 sequence (P13631 1-454): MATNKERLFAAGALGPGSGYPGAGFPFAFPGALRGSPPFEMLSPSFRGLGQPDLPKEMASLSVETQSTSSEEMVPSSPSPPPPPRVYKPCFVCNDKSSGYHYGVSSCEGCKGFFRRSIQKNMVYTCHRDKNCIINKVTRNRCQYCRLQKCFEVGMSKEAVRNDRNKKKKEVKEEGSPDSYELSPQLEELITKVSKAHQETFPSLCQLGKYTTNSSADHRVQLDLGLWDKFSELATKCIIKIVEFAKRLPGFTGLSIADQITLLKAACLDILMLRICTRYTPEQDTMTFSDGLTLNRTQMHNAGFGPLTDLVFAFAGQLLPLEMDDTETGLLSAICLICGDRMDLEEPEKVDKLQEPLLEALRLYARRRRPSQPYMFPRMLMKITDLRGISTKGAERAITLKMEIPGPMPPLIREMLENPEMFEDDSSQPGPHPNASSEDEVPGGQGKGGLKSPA
From the text: as §1

For `CC12CCC(C)(CC1)c1cc(C(=O)Nc3ccc(C(=O)O)c(F)c3)c(O)cc12` [Compound 8, 2-Fluoro-4-[(5-hydroxy-1,8-dimethyl-tricyclo[6.2.20^2,7]dodeca-2(7),3,5-trien-4-carbonyl)amino]benzoic Acid], the Kd (RARα) was 53 nM, the Kd (RARβ) was 7200 nM and the Kd (RARγ) was greater than 10000 nM.
Molecule `CC12CCC(C)(CC1)c1c2cc(C(=O)Nc2cc(F)c(C(=O)O)c(F)c2)c(O)c1Br` [Compound 14, 4-[(6-Bromo-5-hydroxy-1,8-dimethyl-tricyclo[6.2.20^2,7]dodeca-2(7),3,5-trien-4-carbonyl)amino]-2,6-difluorobenzoic Acid] has a Kd (RARα) of 84 nM, a Kd (RARβ) greater than 10000 nM and a Kd (RARγ) greater than 10000 nM.
In the case of `CC12CCC(C)(CC1)c1c2cc(C(=O)Nc2ccc(C(=O)O)c(F)c2)c(O)c1Br` [Compound 10, 4-[(6-Bromo-5-hydroxy-1,8-dimethyl-tricyclo[6.2.20^2,7]dodeca-2(7),3,5-trien-4-carbonyl)amino]-2-fluorobenzoic Acid], the Kd (RARα) is reported as 32 nM, the Kd (RARβ) is reported as greater than 10000 nM and the Kd (RARγ) is reported as greater than 10000 nM.
